The results in this text go back to patent publication US5670530A, “Anti-cancer composition comprising rhodacyanine compound and cyclodextrin” (Fuji Photo Film Co., Ltd., priority 1995, dated 1997).

Some results are limits rather than exact numbers.

The term solubility denotes how much of the substance goes into solution per volume. As a reminder, the T/C is the result in the treated group divided by that in the control group, in per cent.

Series [1] can be described thus: Solubility of rhodacyanine compounds in human serum at 37° C.
The nature of series [2]: Precipitation of Compound 1 in rat blood with HP-β-CD (Example 5). The settings on record: HP-β-CD concentration increases. Format: physicochemical.
Series [3] in a line: Solubility of Compound 1 in fetal calf serum with HP-β-CD (Example 2). Particulars: HP-β-CD 0 to 45 w/v %, 30 minutes, 25° C. Format: physicochemical. As to the method:
(§1) Solutions of HP-β-CD in demineralized water having concentrations varying from 0 w/v % to 45 w/v % were prepared as described in EXAMPLE 1. […] The results obtained are shown graphically in FIGS. 1 and 2.

A short description of series [4]: Solubility of Compound 1 in aqueous solutions of β-CD, HP-β-CD and γ-CD (Example 3). It is filed as physicochemical.
Series [5] in a line: Solubility of Compound 1 in aqueous solution containing various solubilizers (Example 1). It is filed as physicochemical. Particulars: for solubility at 24 h: 25° C. The protocol: Solubilizers, β-CD, polyethylene glycol 400 and Pluronic F60, were added to demineralized water respectively to prepare solutions having concentrations shown in TABLE 1. […] The test tubes were fixed in thermostatic bath controlled at 25° C. and allowed to stand for 24 hours.

The nature of series [6]: Solubility of Compound 1 in rat serum with HP-β-CD (Example 2). It is filed as physicochemical. The settings on record: HP-β-CD 0 to 45 w/v %, 30 minutes, 25° C. The protocol:
as §1

In series [7] the test system is human colon carcinoma cells (CX-1). As to the kind of experiment: Tumor inhibition in nude mice implanted with human colon carcinoma cells CX-1 (Example 8). Format: in vivo, human cells in nude mouse (Swiss nu/nu). Particulars: for Tumor Inhibition: day 1, 2, 4, 6, 7, 8, 9. The protocol: 2,500,000 human colon carcinoma cells (CX-1) were injected subcutaneously into each nude mouse (Swiss nu/nu) obtained from Taconic Farm and the mice were randomly allocated into a control group (five mice) and treatment groups (five mice per group).
The anti-cancer compositions containing HP-β-CD were prepared using the following method. HP-β-CD (45 g) was mixed with 100 ml of sterilized, double distilled water and stirred for four hours. Each of the compounds to be tested (20 mg) was mixed with 10 ml of HP-β-CD solution and sonicated for 60 minutes in the dark. This solution was then diluted in 5% glucose to yield a final compound concentration of 0.5 mg/ml, and further sonicated for 60 minutes in the dark to assure that the compound was completely dissolved. The anti-cancer compositions not containing HP-β-CD were also prepared using the same method except that 5% glucose solution was used instead of the HP-β-CD solution.
The control group received an equivalent volume of 5% glucose solution.
When the growth of tumors in the control group reached the exponential phase and the size of the tumor was palpable (usually 20 to 30 days after tumor implantation), the experiments were terminated. Tumors in each mouse were excised and weighed using an analytical balance. Total tumor weight in each group from five mice was calculated. Per cent tumor inhibition between the treated group and the control group was then calculated for each group.

A short description of series [8]: Solubility of Compounds 2, 4 and 5 in aqueous solution containing various cyclodextrin compounds (Example 4). It is filed as physicochemical. Particulars: for Solubility in water with cyclodextrin compounds: β-CD, HP-β-CD, γ-CD. The protocol: as §1
Aqueous solutions of β-CD, HP-β-CD and γ-CD were prepared and solubility of Compounds 2, 4 and 5 in each of the aqueous solutions having the concentration varing as shown in TABLE 2 was determined as described in EXAMPLE 2. For the purpose of comparison, solubility of Compounds 2, 4 and 5 in water was also determined.

The next series concerns human melanoma LOX. The series is described as follows: Survival of nude mice implanted with human melanoma LOX (Example 9). Format: in vivo, human cells in nude mice.

Take `CCn1c(=CC2=[N+](CC)CCS2)sc(=C2SC3=C(CCCC3)N2C)c1=O`: the solubility in series [1] was above 1000 µg/mL.
With `CCn1c(=CC2=[N+](CC)CCS2)sc(=C2Sc3ccccc3N2C)c1=O`, in series [1], the solubility is above 1000 µg/mL.
The compound `CCn1c(=Cc2scc(C)[n+]2CC)sc(=C2Sc3ccccc3N2C)c1=O` returned a solubility in series [1] above 1000 µg/mL.
On the same count and under the same terms, under `CN1C(=c2sc(=Cc3oc4ccccc4[n+]3C)n(C)c2=O)Sc2ccccc21` stands 300 µg/mL.
In turn, `CCn1c(=Cc2sc3ccccc3[n+]2CC)sc(=CC=C2SC=C(C)N2C)c1=O` registered a solubility in series [1] below 1000 µg/mL.
On the same count and under the same terms, under `CCn1c(=Cc2oc3c4ccccc4ccc3[n+]2CC)sc(=C2Sc3ccccc3N2C)c1=O` stands below 100 µg/mL.
On to `CCn1c(=Cc2sc3c4ccccc4ccc3[n+]2CC)sc(=CC=C2Sc3ccc4ccccc4c3N2C)c1=O` [Compound 1], for which the “precipitation of Compound 1 in blood” value in series [2] is “effectively inhibited”. Besides, the “Compound 1 dissolved in serum (FIGS. 1 and 2)” value in [3] is listed as “much dissolved in the serums, depending on the increase in HP-β-CD concentration”; in [6] it was “much dissolved in the serums, depending on the increase in HP-β-CD concentration”. Further, the “Solubility in water with cyclodextrins (FIG. 3)” value in [4] (β-CD, HP-β-CD and γ-CD) is “all cyclodextrin compounds used improve solubility of Compound 1 in water”. The “Solubility in water with γ-CD (FIG. 3)” value in series [4] (γ-CD) is “γ-CD greatly improves the solubility”. The solubility at 24 h in series [5] (water only) came out at 1860 µg/mL; in [5] (water, peg 400 50%, organic solvent or mixture, Polyethylene glycol 400, 50 w/v %), 870 µg/mL; in [5] (water, Pluronic F60 0.02 w/v %), 3230 µg/mL; in [5] (water, Pluronic F60 0.2 w/v %) it was 3130 µg/mL; in series [5] (water, β-CD 1.5 w/v %), 8170 µg/mL. For the same compound, the “increase of solubility in water by β-CD” value in series [5] (β-CD vs compound itself in water) was found to be 4.4 times. Further, the “Tumor Inhibition” value in series [7] (2 mg/kg i.p., HP-β-CD added) is 48.8%; in [7] (2 mg/kg i.p., HP-β-CD non-added), 29.1%; in series [7] (4 mg/kg i.p., HP-β-CD added), 30.2%; in series [7] (4 mg/kg i.p., HP-β-CD non-added), 20.9%. The “tumor inhibition, with vs without HP-β-CD” value in series [7] (solution containing HP-β-CD vs no HP-β-CD) is “higher tumor inhibition than that containing no HP-β-CD”.
As for `CCN1C(=CC=c2sc(=CC3=[N+](CC)CCS3)n(CC)c2=O)C=Cc2ccccc21` [Compound 2], in series [8], the Solubility in water was 0.03 mM/dl and the “Solubility in water with cyclodextrin compounds” value is recorded as “improved by all of the cyclodextrin compounds used”. Besides, the “Solubility in aqueous solution of CD” value in series [8] (β-CD 0.80 mM/dl) worked out at 0.55 mM/dl.
Consider `CCn1c(=C2CCC[n+]3c2sc2ccccc23)sc(=C2Sc3ccccc3N2C)c1=O` [Compound 4], for which the “Solubility in aqueous solution of CD” value in series [8] (HP-β-CD 4.2 mM/dl) is listed as 0.03 mM/dl. Besides, in series [8], the Solubility in water was 0.001 mM/dl and the “Solubility in water with cyclodextrin compounds” value is “improved by all of the cyclodextrin compounds used”.
`CCn1c(=Cc2sc3c4ccccc4ccc3[n+]2CC)sc(=C2Sc3ccc4ccccc4c3N2C)c1=O` [Compound 5]: in [8], the Solubility in water is ~ 0 mM/dl and the “Solubility in water with cyclodextrin compounds” value is reported as “improved by all of the cyclodextrin compounds used”. In series [8] (γ-CD 1.0 mM/dl), the “Solubility in aqueous solution of CD” value was found to be 0.02 mM/dl.
Take `CCn1c(=Cc2oc3ccccc3[n+]2CC)sc(=C2Sc3ccccc3N2C)c1=O` [Compound 7]: the T/C in the series on human melanoma LOX (10 mg/kg i.p., HP-β-CD added, day 1, 4, 8, 12, 16, 21, 25) came to 200%; in the series on human melanoma LOX (10 mg/kg i.p., HP-β-CD non-added, day 1, 4, 8, 12, 16, 21, 25), 175%.
Take `CCN1C(=CC=c2sc(=Cc3cc[n+](CC)c4ccccc34)n(CC)c2=O)C=Cc2ccccc21` [Compound 8]: the T/C with human melanoma LOX (20 mg/kg i.p., HP-β-CD added, day 1, 2, 3, 4, 8, 9) came to 227%; with human melanoma LOX (20 mg/kg i.p., HP-β-CD non-added, day 1, 2, 3, 4, 8, 9), 183%.
In turn, `CCN1C(=CC=c2sc(=CC3=[N+](CC)CCS3)n(CC)c2=O)C=Cc2ccccc21` [drawing 16] registered a solubility in series [1] below 100 µg/mL.
Take `CCn1c(=Cc2oc3ccccc3[n+]2CC)sc(=C2Sc3ccccc3N2C)c1=O` [drawing 17]: the solubility in [1] was below 100 µg/mL.
As for `CCN1C(=CC=c2sc(=Cc3cc[n+](CC)c4ccccc34)n(CC)c2=O)C=Cc2ccccc21` [drawing 20], in series [1], the solubility is below 100 µg/mL.
The same measure, in the same setting: under `CCn1c(=Cc2sc3c4ccccc4ccc3[n+]2CC)sc(=CC=C2Sc3ccc4ccccc4c3N2C)c1=O` [drawing 21] stands below 100 µg/mL.
